One experiment addresses T1, c-erbB-4 (Homo sapiens, UniProt Q15303).
T1 construct: baculovirus expressed, recombinant constructs of the intracellular domains of c-erbB-2 and c-erbB-4; made in house
Briefly: Substrate phosphorylation assay, c-erbB-4. The note with it: recombinant intracellular domain, baculovirus expressed; ATP and peptide at Km; read-out: ErbB4 IC50. The class given is biochemical. How it is done:
The substrate phosphorylation assays use baculovirus expressed, recombinant constructs of the intracellular domains of c-erbB-2 and c-erbB-4 that are constitutively active and EGFr isolated from solubilised A431 cell membranes. The method measures the ability of the isolated enzymes to catalyse the transfer of the γ-phosphate from ATP onto tyrosine residues in a biotinylated synthetic peptide (Biotin-[…]. […] The reaction is stopped by the addition of EDTA (final concentration 0.15 mM) and a sample is transferred to a streptavidin-coated 96-well plate. The plate is washed and level of phosphotyrosine on the peptide is determined using a Europium-labelled antiphosphotyrosine antibody and quantified with a time-resolved fluorescence technique. The results are shown in Table 1 as the IC50 value in Micromolar ranges.

The target in another experiment is T2, c-erbB-2 (Homo sapiens, UniProt P04626).
T2 construct: baculovirus expressed, recombinant constructs of the intracellular domains of c-erbB-2 and c-erbB-4; made in house
Briefly: Substrate phosphorylation assay, c-erbB-2. Format: biochemical. The following applies: recombinant intracellular domain, baculovirus expressed; ATP and peptide at Km; read-out: ErbB2 IC50. How it is done:
The substrate phosphorylation assays use baculovirus expressed, recombinant constructs of the intracellular domains of c-erbB-2 and c-erbB-4 that are constitutively active and EGFr isolated from solubilised A431 cell membranes. […] The reaction is stopped by the addition of EDTA (final concentration 0.15 mM) and a sample is transferred to a streptavidin-coated 96-well plate. The plate is washed and level of phosphotyrosine on the peptide is determined using a Europium-labelled antiphosphotyrosine antibody and quantified with a time-resolved fluorescence technique. The results are shown in Table 1 as the IC50 value in Micromolar ranges.

The target of experiment [1] is T3, EGFr isolated from solubilised A431 cell membranes (Homo sapiens, UniProt P00533).
T3 construct: EGFr isolated from solubilised A431 cell membranes; endogenous in cells; host or cells: A431 cell membranes, solubilised
The experiment is described as follows: Substrate phosphorylation assay, EGFr. Format: biochemical. The note with it: ATP and peptide at Km. How it is done: The substrate phosphorylation assays use baculovirus expressed, recombinant constructs of the intracellular domains of c-erbB-2 and c-erbB-4 that are constitutively active and EGFr isolated from solubilised A431 cell membranes. […] The reaction is stopped by the addition of EDTA (final concentration 0.15 mM) and a sample is transferred to a streptavidin-coated 96-well plate. The plate is washed and level of phosphotyrosine on the peptide is determined using a Europium-labelled antiphosphotyrosine antibody and quantified with a time-resolved fluorescence technique.

Another experiment relates to BT474 cells. The experiment is described as follows: Methylene blue growth inhibition assay, BT474. Format: cell-based. The note with it: BT-474, 72 h; human breast tumor cell line, 3 days. How it is done:
(§1) Human breast (BT474), head and neck (HN5) and gastric tumor (N87) cell lines were cultured in low glucose DMEM (Life Technologies 12320-032) containing 10% fetal bovine serum (FBS) at 37° C. in a humidified 10% CO2, 90% air incubator. The SV40 transformed human mammary epithelial cell line HB4a was transfected with either human H-ras cDNA (HB4a r4.2) or the human c-erbB2 cDNA (HB4a c5.2). The HB4a clones were cultured in RPMI containing 10% FBS, insulin (5 μg/ml), hydrocortisone (5 μg/ml), supplemented with the selection agent hygromycin B (50 μg/ml). Cells were harvested using trypsin/EDTA, counted using a haemocytometer, and plated in […] of the appropriate media, at the following densities, in a 96-well tissue culture plate (Falcon 3075): BT474 10,000 cells/well, HN5 3,000 cells/well, N87 10,000 cells/well, HB4a c5.2 3,000 cells/well, HB4a r4.2 3,000 cells/well. The next day, compounds were diluted in DMEM containing […] gentamicin, at twice the final required concentration, from 10 mM stock solutions in DMSO. […] of these dilutions were added to the […] of media currently on the cell plates. Medium containing 0.6% DMSO was added to control wells. Compounds diluted in DMEM were added to all cell lines, including the HB4a r4.2 and HB4a c5.2 cell lines. The final concentration of DMSO in all wells was 0.3%. Cells were incubated at 37° C., 10% CO2 for 3 days. Medium was removed by aspiration. Cell biomass was estimated by staining cells with 100 μl per well methylene blue (Sigma M9140, 0.5% in 50:50 ethanol:water), and incubation at room temperature for at least 30 minutes. Stain was removed, and the plates rinsed under a gentle stream of water, and air-dried. To release stain from the cells 100 μl of solubilization solution was added (1% N-lauroyl sarcosine, Sodium salt, Sigma L5125, in PBS), and plates were shaken gently for about 30 minutes. Optical density at 620 nm was measured on a microplate reader. Percent inhibition of cell growth was calculated relative to vehicle treated control wells. Concentration of compound that inhibits 50% of cell growth (IC50) was interpolated using nonlinear regression (Levenberg-Marquardt) and the equation, y=Vmax*(1−(x/(K+x)))+Y2, where “K” was equal to the IC50.

In the next experiment the test system is N87 cells. The experiment is described as follows: Methylene blue growth inhibition assay, N87. The class given is cell-based. The following applies: 72 h; human gastric tumor cell line, 3 days. How it is done:
as §1

The next experiment has as its system HN5 cells. The experiment is described as follows: Methylene blue growth inhibition assay, HN5. Format: cell-based. The note with it: HN5, 72 h; human head and neck tumor cell line, 3 days. How it is done:
as §1

Another experiment relates to HB4a c5.2 cells. The experiment is described as follows: Methylene blue growth inhibition assay, HB4a c5.2. The class given is cell-based. The following applies: HB4a-C5.2, 72 h; human mammary epithelial line transfected with human c-erbB2 cDNA, 3 days; read-out: HB4a c5.2 IC50 (cell growth). As to the method: as §1

Structures are written as SMILES.

T1 sequence (Q15303 676-1308 limits assumed): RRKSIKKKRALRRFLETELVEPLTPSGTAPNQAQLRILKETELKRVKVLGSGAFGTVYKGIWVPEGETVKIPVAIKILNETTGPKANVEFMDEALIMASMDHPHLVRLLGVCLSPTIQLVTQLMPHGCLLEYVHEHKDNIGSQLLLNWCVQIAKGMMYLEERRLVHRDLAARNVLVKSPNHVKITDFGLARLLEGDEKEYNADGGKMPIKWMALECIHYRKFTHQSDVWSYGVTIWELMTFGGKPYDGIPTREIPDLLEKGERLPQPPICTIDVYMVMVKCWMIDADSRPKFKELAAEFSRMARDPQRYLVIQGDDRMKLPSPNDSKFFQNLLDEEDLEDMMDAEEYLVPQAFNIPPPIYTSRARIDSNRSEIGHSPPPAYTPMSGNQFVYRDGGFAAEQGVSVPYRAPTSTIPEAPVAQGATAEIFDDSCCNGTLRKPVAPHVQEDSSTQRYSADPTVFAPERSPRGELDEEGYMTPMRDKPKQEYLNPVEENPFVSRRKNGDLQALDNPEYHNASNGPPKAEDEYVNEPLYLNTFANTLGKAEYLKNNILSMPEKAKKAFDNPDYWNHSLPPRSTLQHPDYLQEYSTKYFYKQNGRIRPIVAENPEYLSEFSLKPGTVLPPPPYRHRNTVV
T3 sequence (P00533 25-1210): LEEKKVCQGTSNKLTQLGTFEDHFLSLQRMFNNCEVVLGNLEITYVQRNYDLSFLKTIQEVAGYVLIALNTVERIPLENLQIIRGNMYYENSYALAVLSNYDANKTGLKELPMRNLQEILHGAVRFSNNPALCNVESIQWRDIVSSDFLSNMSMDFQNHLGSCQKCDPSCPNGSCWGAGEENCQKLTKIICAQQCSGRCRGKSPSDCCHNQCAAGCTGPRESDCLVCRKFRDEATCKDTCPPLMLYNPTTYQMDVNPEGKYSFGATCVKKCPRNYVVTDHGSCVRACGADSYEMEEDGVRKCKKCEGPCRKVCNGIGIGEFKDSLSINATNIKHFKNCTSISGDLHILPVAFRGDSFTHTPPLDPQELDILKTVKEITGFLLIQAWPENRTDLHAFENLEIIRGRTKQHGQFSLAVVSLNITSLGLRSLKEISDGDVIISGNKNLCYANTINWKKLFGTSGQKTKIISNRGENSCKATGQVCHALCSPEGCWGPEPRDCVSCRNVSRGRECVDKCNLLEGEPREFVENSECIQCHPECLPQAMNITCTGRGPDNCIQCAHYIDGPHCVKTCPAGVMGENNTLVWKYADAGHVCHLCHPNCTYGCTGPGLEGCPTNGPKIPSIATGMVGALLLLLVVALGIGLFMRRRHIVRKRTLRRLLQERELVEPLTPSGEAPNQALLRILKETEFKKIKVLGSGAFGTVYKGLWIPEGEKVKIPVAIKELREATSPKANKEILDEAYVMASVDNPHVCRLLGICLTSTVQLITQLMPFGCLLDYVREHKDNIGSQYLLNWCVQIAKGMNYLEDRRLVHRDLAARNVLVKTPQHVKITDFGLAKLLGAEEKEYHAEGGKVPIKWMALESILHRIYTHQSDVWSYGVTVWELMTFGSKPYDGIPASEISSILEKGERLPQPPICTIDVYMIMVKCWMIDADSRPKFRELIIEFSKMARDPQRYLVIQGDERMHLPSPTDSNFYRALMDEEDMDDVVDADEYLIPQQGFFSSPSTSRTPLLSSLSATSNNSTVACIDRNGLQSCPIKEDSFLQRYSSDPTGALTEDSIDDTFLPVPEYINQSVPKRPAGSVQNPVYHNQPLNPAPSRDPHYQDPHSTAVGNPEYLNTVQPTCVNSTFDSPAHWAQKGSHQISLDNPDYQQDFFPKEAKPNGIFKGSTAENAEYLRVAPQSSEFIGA
T2 sequence (P04626 676-1255 limits assumed): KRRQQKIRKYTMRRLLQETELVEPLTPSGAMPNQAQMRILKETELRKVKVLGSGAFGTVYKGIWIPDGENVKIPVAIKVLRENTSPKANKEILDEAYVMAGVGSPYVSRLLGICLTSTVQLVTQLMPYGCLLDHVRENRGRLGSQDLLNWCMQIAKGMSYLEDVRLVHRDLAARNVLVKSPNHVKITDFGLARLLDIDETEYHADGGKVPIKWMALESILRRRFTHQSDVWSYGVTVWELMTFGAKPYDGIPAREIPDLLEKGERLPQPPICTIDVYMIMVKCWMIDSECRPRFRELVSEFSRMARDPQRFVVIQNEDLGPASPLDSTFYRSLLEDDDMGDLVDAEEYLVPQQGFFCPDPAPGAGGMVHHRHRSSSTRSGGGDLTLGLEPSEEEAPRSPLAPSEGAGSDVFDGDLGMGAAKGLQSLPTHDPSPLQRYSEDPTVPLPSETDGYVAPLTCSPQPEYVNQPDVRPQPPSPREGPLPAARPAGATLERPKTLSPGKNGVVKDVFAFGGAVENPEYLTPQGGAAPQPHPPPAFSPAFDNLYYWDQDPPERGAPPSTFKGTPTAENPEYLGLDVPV

Broadly, the IC50 is the point on the concentration scale where inhibition reaches its midpoint. For `Cn1ccnc1S(=O)(=O)CCNCc1ccc(-c2ccc3ncnc(Nc4ccc(OCc5cccc(F)c5)c(Cl)c4)c3c2)o1` [Example 2, (4-(3-Fluorobenzyloxy)-3-chlorophenyl)-(6-(2-((2-(2-N-methylimidazolyl)-sulphonyl-ethylamino)-methyl)-furan-2-yl)-quinazolin-4-yl)-amine], the 50% inhibitory concentration (IC50) on c-erbB-4 was 100 to 1000 nM; on c-erbB-2, under 100 nM; in experiment [1], under 100 nM; in the experiment with BT474 cells it was 100 to 1000 nM; in the experiment with N87 cells, 100 to 1000 nM; in the experiment on HN5 cells it was 100 to 1000 nM. Moreover, the IC50 in the experiment on HB4a c5.2 cells lay in the range of 100 to 1000 nM.
For `O=S(=O)(CCOCc1ccc(-c2ccc3ncnc(Nc4ccc(OCc5cccc(F)c5)c(Cl)c4)c3c2)o1)c1ccccc1` [Example 3, N-{3-chloro-4-[(3-fluorobenzyl)oxy]phenyl}-6-(5-{[2-(phenylsulfonyl)ethoxy]methyl}-2-furyl)-4-quinazolinamine], the IC50 at c-erbB-4 is 1000 to 10000 nM; on c-erbB-2 it was under 100 nM; in experiment [1] it was under 100 nM; with BT474 cells, 100 to 1000 nM; in the experiment with N87 cells, 100 to 1000 nM; with HN5 cells it was 100 to 1000 nM. In addition, in the experiment on HB4a c5.2 cells, the IC50 fell in the range of 100 to 1000 nM.
For `O=S(=O)(CCNCc1ccc(-c2ccc3ncnc(Nc4ccc(OCc5cccc(F)c5)c(Cl)c4)c3c2)o1)c1ccccn1` [Example 5], the concentration for half-maximal inhibition (IC50) at c-erbB-4 was 1000 to 10000 nM; at c-erbB-2 it was under 100 nM; in experiment [1], under 100 nM; with BT474 cells, 1000 to 10000 nM; with N87 cells, 100 to 1000 nM; in the experiment on HN5 cells it was 100 to 1000 nM. Besides, the IC50 in the experiment on HB4a c5.2 cells fell in the range of 1000 to 10000 nM.
With `CCCS(=O)(=O)CCNCc1ccc(-c2cc3c(Nc4ccc(OCc5cccc(F)c5)cc4)ncnc3cn2)o1` [Example 6], the 50% inhibitory concentration (IC50) at c-erbB-4 is 1000 to 10000 nM; at c-erbB-2 it was under 100 nM; in experiment [1], under 100 nM; with BT474 cells, 100 to 1000 nM; in the experiment with N87 cells, 100 to 1000 nM; in the experiment with HN5 cells, 100 to 1000 nM. The concentration for half-maximal inhibition (IC50) in the experiment with HB4a c5.2 cells lay within 100 to 1000 nM.
For the compound `CCCS(=O)(=O)CCNCc1ccc(-c2ccc3ncnc(Nc4ccc(OCc5cccc(F)c5)c(Cl)c4)c3c2)o1` [Example 7], the IC50 on c-erbB-4 is 100 to 1000 nM; at c-erbB-2 it was under 100 nM; in experiment [1], under 100 nM; in the experiment with BT474 cells it was 1000 to 10000 nM; in the experiment on N87 cells it was 1000 to 10000 nM; with HN5 cells, 1000 to 10000 nM. For the same compound, the IC50 with HB4a c5.2 cells is 1000 to 10000 nM.
As to `CS(=O)(=O)CCNCCCc1ccc(-c2ccc3ncnc(Nc4ccc(OCc5ccccc5)c(Cl)c4)c3c2)o1` [Example 8], the IC50 was 1000 to 10000 nM at c-erbB-4; under 100 nM at c-erbB-2; under 100 nM in experiment [1]; 100 to 1000 nM with BT474 cells; 100 to 1000 nM in the experiment with N87 cells; 100 to 1000 nM in the experiment with HN5 cells. Moreover, the IC50 in the experiment with HB4a c5.2 cells is 100 to 1000 nM.
For `CS(=O)(=O)CCOCc1ccc(-c2ccc3ncnc(Nc4ccc(OCc5cccc(F)c5)c(Cl)c4)c3c2)o1` [Example 13, N-{3-chloro-4-[(3-fluorobenzyl)oxy]phenyl}-6-(5-{[2-(methylsulfonyl)ethoxy]methyl}-2-furyl)-4-quinazolinamine], the 50% inhibitory concentration (IC50) at c-erbB-4 is 100 to 1000 nM; at c-erbB-2, under 100 nM; in experiment [1], under 100 nM; with BT474 cells, 100 to 1000 nM; in the experiment on N87 cells, 100 to 1000 nM; in the experiment on HN5 cells, 100 to 1000 nM. In addition, in the experiment with HB4a c5.2 cells, the concentration for half-maximal inhibition (IC50) was in the range of 100 to 1000 nM.
As for `C=CS(=O)(=O)CCOCc1ccc(-c2ccc3ncnc(Nc4ccc(OCc5cccc(F)c5)c(Cl)c4)c3c2)o1` [Example 14, N-{3-chloro-4-[(3-fluorobenzyl)oxy]phenyl}-6-(5-{[2-(vinylsulfonyl)ethoxy]methyl}-2-furyl)-4-quinazolinamine], the IC50 at c-erbB-4 was 100 to 1000 nM; on c-erbB-2 it was under 100 nM; in experiment [1] it was under 100 nM; in the experiment with BT474 cells, 1000 to 10000 nM; in the experiment with N87 cells, 1000 to 10000 nM; in the experiment on HN5 cells it was 1000 to 10000 nM. In the experiment with HB4a c5.2 cells, the IC50 was in the range of 1000 to 10000 nM.
Regarding `CS(=O)(=O)CCN(CC#N)Cc1ccc(-c2ccc3ncnc(Nc4ccc(OCc5cccc(F)c5)c(Cl)c4)c3c2)o1` [Example 15, 2-{{[5-(4-{3-chloro-4-[(3-fluorobenzyl)oxy]anilino}-6-quinazolinyl)-2-furyl]methyl}[2-(methylsulfonyl)ethyl]amino}acetonitrile], the IC50 is 100 to 1000 nM on c-erbB-4; under 100 nM at c-erbB-2; under 100 nM in experiment [1]; under 100 nM with BT474 cells; 100 to 1000 nM with N87 cells; under 100 nM in the experiment with HN5 cells. Besides, the half-maximal inhibitory concentration (IC50) in the experiment with HB4a c5.2 cells fell in the range of 100 to 1000 nM.
In the case of `CS(=O)(=O)CCN(Cc1ccccc1)Cc1ccc(-c2ccc3ncnc(Nc4ccc(OCc5cccc(F)c5)c(Cl)c4)c3c2)o1` [Example 16, 6-[5-({benzyl[2-(methylsulfonyl)ethyl]amino}methyl)-2-furyl]-N-{3-chloro-4-[(3-fluorobenzyl)oxy]phenyl}-4-quinazolinamine], the IC50 on c-erbB-4 fell in the range of 100 to 1000 nM; on c-erbB-2 it was 100 to 1000 nM; with BT474 cells, 100 to 1000 nM; in the experiment with N87 cells, 100 to 1000 nM; with HN5 cells it was 1000 to 10000 nM; in the experiment with HB4a c5.2 cells, 1000 to 10000 nM.
Take `CCN(CCS(C)(=O)=O)Cc1ccc(-c2ccc3ncnc(Nc4ccc(OCc5cccc(F)c5)c(Cl)c4)c3c2)o1` [Example 17, N-{3-chloro-4-[(3-fluorobenzyl)oxy]phenyl}-6-[5-({ethyl[2-(methylsulfonyl)ethyl]amino}methyl)-2-furyl]-4-quinazolinamine]: the IC50 at c-erbB-4 is 100 to 1000 nM; on c-erbB-2, under 100 nM; in experiment [1] it was under 100 nM; in the experiment on BT474 cells it was 100 to 1000 nM; with N87 cells it was 100 to 1000 nM; in the experiment with HN5 cells it was 100 to 1000 nM. Moreover, the half-maximal inhibitory concentration (IC50) in the experiment on HB4a c5.2 cells lay within 100 to 1000 nM.
With `CCCN(CCS(C)(=O)=O)Cc1ccc(-c2ccc3ncnc(Nc4ccc(OCc5cccc(F)c5)c(Cl)c4)c3c2)o1` [Example 18, N-{3-chloro-4-[(3-fluorobenzyl)oxy]phenyl}-6-(5-{[[2-(methylsulfonyl)ethyl](propyl)amino]methyl}-2-furyl)-4-quinazolinamine], the 50% inhibitory concentration (IC50) at c-erbB-4 is under 100 nM; at c-erbB-2, under 100 nM; in experiment [1], under 100 nM; in the experiment on BT474 cells, 100 to 1000 nM; in the experiment with N87 cells, 100 to 1000 nM; with HN5 cells it was 100 to 1000 nM. For the same compound, the IC50 in the experiment with HB4a c5.2 cells lay within 100 to 1000 nM.
Consider `CC(C)S(=O)(=O)CCNCc1ccc(-c2ccc3ncnc(Nc4ccc(OCc5cccc(F)c5)c(Cl)c4)c3c2)o1` [Example 19], for which the IC50 is 100 to 1000 nM at c-erbB-4; under 100 nM at c-erbB-2; 100 to 1000 nM in the experiment on BT474 cells; 100 to 1000 nM in the experiment on N87 cells; 100 to 1000 nM in the experiment with HB4a c5.2 cells.
